Assay results: patent publication US20050256003A1, “Novel herbicides” (priority 2002, published 2005)

Experiments:
Format in all cases: in vivo
selected test plants = assay: Post-emergence action in a different test arrangement (Table B3); set-up: key to Post-emergence action (different test arrangement), Nasturtium / Post-emergence action (different test arrangement), Stellaria / Post-emergence action (different test arrangement), Solanum: 10=total damage; 0=no action; Ratings of from 10 to 7 (especially from 10 to 8) indicate good to very good herbicidal action; conditions: 250 g a.i./ha
[1] = system: monocotyledonous and dicotyledonous test plants; assay: Herbicidal action prior to emergence of the plants (pre-emergence action); set-up: key: 10=total damage; 0=no action; Ratings of from 10 to 7 (especially from 10 to 8) indicate good to very good herbicidal action; conditions: 250 g a.i./ha, pre-emergence spray, evaluated after 3 weeks, scale 10=total damage, 0=no action
Source text: Herbicidal Action Prior to Emergence of the Plants (Pre-Emergence Action)
Monocotyledonous and dicotyledonous test plants are sown in standard soil in plastic pots Immediately after sowing, the test compounds, in the form of an aqueous suspension (prepared from a 25% wettable powder (Example F3, b) according to WO 97/34485) or in the form of an emulsion (prepared from a 25% emulsifiable concentrate (Example F1, c)), are applied by spraying in a concentration corresponding to 125 g or 250 g of active ingredient/ha (500 litres of water/ha). The test plants are then grown in a greenhouse under optimum conditions. After a test duration of 3 weeks, the test is evaluated in accordance with a scale of nine ratings (10=total damage, 0=no action). Ratings of from 10 to 7 (especially from 10 to 8) indicate good to very good herbicidal action.

[2] = system: monocotyledonous and dicotyledonous test plants; assay: Post-emergence herbicidal action; set-up: key: 10=total damage; 0=no action; Ratings of from 10 to 7 (especially from 10 to 8) indicate good to very good herbicidal action; conditions: 250 g a.i./ha, about 18 days, rating 0-10
Description: Post-Emergence Herbicidal Action
In a greenhouse, monocotyledonous and dicotyledonous test plants are grown in standard soil in plastic pots and at the 4- to 6-leaf stage are sprayed with an aqueous suspension of the test compounds of formula I prepared from a 25% wettable powder (Example F3, b) according to WO 97/34485) or with an emulsion of the test compounds of formula I prepared from a 25% emulsifiable concentrate (Example F1, c) according to WO 97/34485), in a concentration corresponding to 125 g or 250 g of active ingredient/ha (500 litres of water/ha). The test plants are then grown on in a greenhouse under optimum conditions. After a test duration of about 18 days, the test is evaluated in accordance with a scale of nine ratings (10=total damage, 0=no action). Ratings of from 10 to 7 (especially from 10 to 8) indicate good to very good herbicidal action.

SMILES | Post-emergence action (different test arrangement), Amaranthus (selected test plants) | Post-emergence action (different test arrangement), Nasturtium (selected test plants) | Post-emergence action (different test arrangement), Solanum (selected test plants) | Post-emergence action (different test arrangement), Stellaria (selected test plants) | Pre-emergence action: Abutilon (rating) [1] | Pre-emergence action: Chenopodium (rating) [1] | Pre-emergence action: Cyperus (rating) [1] | Pre-emergence action: Echinochloa (rating) [1] | Pre-emergence action: Panicum (rating) [1] | Pre-emergence action: Scirpus (rating) [1] | Pre-emergence action: Sida (rating) [1] | Post-emergence action, Amaranthus [2] | Post-emergence action, Chenopodium [2] | Post-emergence action, Echinochloa [2] | Post-emergence action, Euphorbia [2] | Post-emergence action, Ipomea [2] | Post-emergence action, Sinapis [2] | Post-emergence action, Stellaria [2] | Post-emergence action, Xanthium [2] | Pre-emergence action: Amaranthus (rating) [1]
COc1nn(Cc2nc(C(F)(F)F)ccc2C(=O)C2=C(O)CCCC2=O)c(=O)n1C [Compound A1.025] | 9 | 9 | 9 | 9 |  |  |  |  |  |  |  |  |  |  |  |  |  |  |  | 
Cc1nn(Cc2nc(C(F)(F)F)ccc2C(=O)C2=C(O)CCCC2=O)c(=O)o1 [Compound A1.097, 3-[3-(2-Hydroxy-6-oxo-cyclohex-1-enecarbonyl)-6-trifluoromethyl-pyridin-2-ylmethyl]-5-methyl-3H-[1.3.4]oxadiazol-2-one] | 9 | 10 | 9 | 9 |  |  |  |  |  |  |  |  |  |  |  |  |  |  |  | 
CC(C)N1CC(=O)N(Cc2nc(C(F)(F)F)ccc2C(=O)C2=C(O)CCCC2=O)C1=O [Compound A1.175] | 7 | 8 | 9 | 7 |  |  |  |  |  |  |  |  |  |  |  |  |  |  |  | 
Cc1nc(C)n(Cc2nc(C(F)(F)F)ccc2C(=O)C2=C(O)CCCC2=O)c(=O)c1Cl [Compound A1.209] | 7 | 9 | 9 | 7 |  |  |  |  |  |  |  |  |  |  |  |  |  |  |  | 
Cn1c(=O)n(Cc2nc(C(F)(F)F)ccc2C(=O)C2=C(O)CCCC2=O)c(=O)n1C [Compound A1.211] | 9 | 10 | 9 | 7 |  |  |  |  |  |  |  |  |  |  |  |  |  |  |  | 
CN1CCN(Cc2nc(C(F)(F)F)ccc2C(=O)C2=C(O)CCCC2=O)C1=O [Compound A1.213] | 9 | 9 | 9 | 9 |  |  |  |  |  |  |  |  |  |  |  |  |  |  |  | 
O=C1CCCC(O)=C1C(=O)c1ccc(C(F)(F)F)nc1CN1CCCC1=O [Compound A1.219] | 9 | 10 | 9 | 10 |  |  |  |  |  |  |  |  |  |  |  |  |  |  |  | 
O=C1CCCC(O)=C1C(=O)c1ccc(C(F)(F)F)nc1COCCN1CCCC1=O [Compound A1.220] | 9 | 10 | 9 | 10 |  |  |  |  |  |  |  |  |  |  |  |  |  |  |  | 
O=C1CCCC(O)=C1C(=O)c1ccc(C(F)(F)F)nc1CN1CCC1=O [Compound A1.221] | 9 | 10 | 9 | 9 |  |  |  |  |  |  |  |  |  |  |  |  |  |  |  | 
CC1CCN(Cc2nc(C(F)(F)F)ccc2C(=O)C2=C(O)CCCC2=O)C1=O (stereo not shown) [Compound A1.222] | 9 | 10 | 9 | 9 |  |  |  |  |  |  |  |  |  |  |  |  |  |  |  | 
Cc1nn(Cc2nc(C(F)(F)F)ccc2C(=O)C2=C(O)C(C)(C)C(=O)C(C)(C)C2=O)c(=O)o1 [Compound A8.008] |  |  |  |  | 10 | 10 | 0 | 10 | 10 | 0 | 10 | 9 | 8 | 8 | 8 | 9 | 7 | 6 | 9 | 
Cn1ncn(Cc2nc(C(F)(F)F)ccc2C(=O)C2=C(O)C(C)(C)C(=O)C(C)(C)C2=O)c1=O [Compound A8.080] |  |  |  |  | 10 | 10 | 0 | 10 | 9 | 8 | 9 | 9 | 10 | 9 | 9 | 10 | 10 | 10 | 8 | 0
Cc1nn(Cc2nc(C(F)(F)F)ccc2C(=O)c2cnn(C)c2O)c(=O)o1 [Compound B1.008] |  |  |  |  | 10 | 10 | 9 | 9 | 10 | 10 | 9 | 9 | 10 | 9 | 8 | 9 | 7 | 8 |  | 10
Cn1ncc(C(=O)c2ccc(C(F)(F)F)nc2Cn2cnn(C)c2=O)c1O [Compound B1.080] |  |  |  |  | 8 | 10 | 9 | 10 | 10 | 9 | 0 | 10 | 10 | 9 | 10 | 10 | 10 | 10 | 8 | 0
COc1nn(Cc2nc(C(F)(F)F)ccc2C(=O)c2cnn(C)c2O)c(=O)s1 [Compound B1.096] |  |  |  |  | 10 | 10 | 7 |  | 7 | 7 | 7 | 7 | 10 | 6 | 7 | 7 | 9 | 8 | 8 | 10
CC(C)N1CC(=O)N(Cc2nc(C(F)(F)F)ccc2C(=O)c2cnn(C)c2O)C1=O [Compound B1.170] |  |  |  |  | 9 | 10 | 8 | 9 | 9 | 9 | 9 | 9 | 9 | 9 | 7 | 0 | 9 | 9 | 6 | 9
